Experimental data as given in PubChem BioAssay AID330 (DTP/NCI, 2004).
Where “and” joins values, the source holds several entries; their conditions need not be identical. Equal entries are not always repeated. Toxic doses and inconclusive results are not listed. Rule for the calls: active = survival T/C of 150% or more; inactive = T/C below 125% in these data.

Test system: P388 leukemia ip, CD2F1 mice, survival T/C
Assay: NCI In Vivo Anticancer Drug Screen. Data for tumor model P388 Leukemia (intraperitoneal) in CD2F1 (CDF1) mice
Settings: endpoint: median survival time, higher = longer survival
How it was run: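 Mice carrying the transplanted tumor received test compound or vehicle. Survival was recorded in each group, and the value is the treated-group measurement divided by that of the vehicle-treated control group.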

[1] = dose: 100.0 mg/kg/injection, schedule: Q01DX009 (ip), vehicle: saline
[2] = dose: 100.0 mg/kg/injection, schedule: Q01DX005 (ip), vehicle: saline with Tween-80
[3] = dose: 50.0 mg/kg/injection, schedule: Q01DX005 (ip), vehicle: saline with Tween-80
[4] = dose: 200.0 mg/kg/injection, schedule: Q01DX005 (ip), vehicle: saline with Tween-80
[5] = dose: 120.0 mg/kg/injection, schedule: Q01DX005 (ip), vehicle: Klucel (hydroxypropylcellulose) (HPC)
[6] = dose: 240.0 mg/kg/injection, schedule: Q01DX005 (ip), vehicle: Klucel (hydroxypropylcellulose) (HPC)
[7] = dose: 100.0 mg/kg/injection, schedule: Q01DX009 (ip), vehicle: saline with Tween-80
[8] = dose: 200.0 mg/kg/injection, schedule: Q01DX009 (ip), vehicle: saline with Tween-80
[9] = dose: 50.0 mg/kg/injection, schedule: Q01DX005 (ip), vehicle: Klucel (hydroxypropylcellulose) (HPC)
[10] = dose: 100.0 mg/kg/injection, schedule: Q01DX005 (ip), vehicle: Klucel (hydroxypropylcellulose) (HPC)
[11] = dose: 200.0 mg/kg/injection, schedule: Q01DX005 (ip), vehicle: Klucel (hydroxypropylcellulose) (HPC)
[12] = dose: 60.0 mg/kg/injection, schedule: Q01DX005 (ip), vehicle: saline with Tween-80
[13] = dose: 120.0 mg/kg/injection, schedule: Q01DX005 (ip), vehicle: saline with Tween-80
[14] = dose: 240.0 mg/kg/injection, schedule: Q01DX005 (ip), vehicle: saline with Tween-80
[15] = dose: 6.25 mg/kg/injection, schedule: Q01DX005 (ip), vehicle: saline with Tween-80
[16] = dose: 12.5 mg/kg/injection, schedule: Q01DX005 (ip), vehicle: saline with Tween-80
[17] = dose: 25.0 mg/kg/injection, schedule: Q01DX005 (ip), vehicle: saline with Tween-80
[18] = dose: 50.0 mg/kg/injection, schedule: Q01DX005 (ip), vehicle: saline
[19] = dose: 100.0 mg/kg/injection, schedule: Q01DX005 (ip), vehicle: saline
[20] = dose: 200.0 mg/kg/injection, schedule: Q01DX005 (ip), vehicle: saline
[21] = dose: 6.25 mg/kg/injection, schedule: Q04DX003 (ip), vehicle: saline
[22] = dose: 25.0 mg/kg/injection, schedule: Q01DX009 (ip), vehicle: saline with Tween-80
[23] = dose: 50.0 mg/kg/injection, schedule: Q01DX009 (ip), vehicle: saline with Tween-80

Measured: T/C

Cc1nc(Sc2nc3ccc([N+](=O)[O-])cc3s2)sc1C
inactive: dose: 50.0 mg/kg/injection, schedule: Q01DX009 (ip), vehicle: saline 87 % of control | [1] 96 % of control | dose: 200.0 mg/kg/injection, schedule: Q01DX009 (ip), vehicle: saline 105 % of control | dose: 400.0 mg/kg/injection, schedule: Q01DX009 (ip), vehicle: saline 96 % of control

COC(=O)CN1C(=O)c2cccc3cc(N)cc(c23)C1=O
inactive: [2] 87 % of control

CCCCCCCCCCCCCCCCCC[N+]1(CC)CCCC1
inactive: dose: 6.25 mg/kg/injection, schedule: Q01DX009 (ip), vehicle: saline 97 % of control | dose: 12.5 mg/kg/injection, schedule: Q01DX009 (ip), vehicle: saline 97 % of control | dose: 25.0 mg/kg/injection, schedule: Q01DX009 (ip), vehicle: saline 97 % of control

Cc1ccc2c(c1)CCCc1c-2nn(-c2ccccc2)c1-c1ccc(Cl)cc1
inactive: [3] 86 % of control | [2] 92 % of control | [4] 90 % of control

CN(C)CCC(=O)C(=Cc1cccs1)C(=O)CCN(C)C
inactive: dose: 60.0 mg/kg/injection, schedule: Q01DX005 (ip), vehicle: saline 101 % of control | dose: 120.0 mg/kg/injection, schedule: Q01DX005 (ip), vehicle: saline 98 % of control | dose: 240.0 mg/kg/injection, schedule: Q01DX005 (ip), vehicle: saline 106 % of control

N#CC1=C(Nc2ccccc2Cl)SC(c2ccncc2)NC1=O (stereo unspecified)
inactive: [5] 111 % of control | [6] 105 % of control

CN(C)CC1C2CCC(C2)C1O (stereo unspecified)
inactive: [3] 98 % of control | [2] 97 % of control | [4] 99 % of control

C=CCc1cc(/C(CC)=C(/CC)c2ccc(OCCN(CC)CC)c(CC=C)c2)ccc1OCCN(CC)CC
inactive: dose: 50.0 mg/kg/injection, schedule: Q01DX005 (ip), vehicle: saline + Tween-80 + alcohol 99 % of control | dose: 100.0 mg/kg/injection, schedule: Q01DX005 (ip), vehicle: saline + Tween-80 + alcohol 93 % of control | dose: 200.0 mg/kg/injection, schedule: Q01DX005 (ip), vehicle: saline + Tween-80 + alcohol 104 % of control

CCOC(=O)C(C)(C)CN1COCC1(C)C
inactive: dose: 50.0 mg/kg/injection, schedule: Q01DX001 (ip), vehicle: saline with Tween-80 104 % of control | dose: 100.0 mg/kg/injection, schedule: Q01DX001 (ip), vehicle: saline with Tween-80 104 % of control | dose: 200.0 mg/kg/injection, schedule: Q01DX001 (ip), vehicle: saline with Tween-80 118 % of control

O=C(Nc1ccc(C(=O)Nc2cc(S(=O)(=O)O)cc3cc(S(=O)(=O)O)cc(O)c23)cc1)c1ccccc1
inactive: [7] 98 % of control | [8] 106 % of control | dose: 400.0 mg/kg/injection, schedule: Q01DX009 (ip), vehicle: saline with Tween-80 103 % of control

CCOC(=O)C1CCc2c(OC)c(C)cc(C)c2C1=O (stereo unspecified)
inactive: [9] 103 % of control | [10] 103 % of control | [11] 95 % of control

COc1cc(-c2oc3c(OC)cc(OC)c(O)c3c(=O)c2OC)cc(OC)c1OC
inactive: dose: 100.0 mg/kg/injection, schedule: Q04DX002 (ip), vehicle: saline with Tween-80 96 % of control | dose: 200.0 mg/kg/injection, schedule: Q04DX002 (ip), vehicle: saline with Tween-80 105 % of control | dose: 400.0 mg/kg/injection, schedule: Q04DX002 (ip), vehicle: saline with Tween-80 96 % of control

Cc1ccc2nc(CC(=O)c3ccccc3)c(CC(=O)c3ccccc3)nc2c1
inactive: [12] 93 % of control | [13] 94 % of control | [14] 96 % of control

N#Cc1ccc(OCCCCOc2ccc(C#N)cc2)cc1
inactive: [15] 95 % of control | [16] 97 % of control | [17] 91 % of control

COc1ccc(C(=O)CCN(C)C)c2ccccc12
inactive: [18] 102 % of control | [19] 100 % of control | [20] 93 % of control

O=C(O)C(Cc1ccc(O)cc1)NC(c1ccccc1)P(=O)(O)O (stereo unspecified)
inactive: [12] 108 % of control | [13] 98 % of control | [14] 99 % of control

NCCCNCCCNc1nc2nc(N)nc(N)c2nc1-c1ccc([N+](=O)[O-])cc1
inactive: [15] 99 % of control | [16] 101 % of control | [17] 105 % of control | [3] 97 % of control

NC(N)=O.NC(N)=O.NC(N)=O.NC(N)=O.NC(N)=O.NC(N)=O.[Cr]
inactive: dose: 3.13 mg/kg/injection, schedule: Q04DX003 (ip), vehicle: saline 98 % of control | [21] 101 % of control | dose: 12.5 mg/kg/injection, schedule: Q04DX003 (ip), vehicle: saline 101 % of control and 102 % of control | dose: 25.0 mg/kg/injection, schedule: Q04DX003 (ip), vehicle: saline 103 % of control

CCCC(=O)NC
inactive: dose: 25.0 mg/kg/injection, schedule: Q01DX005 (ip), vehicle: saline 102 % of control | [18] 99 % of control | [19] 110 % of control | [20] 104 % of control | dose: 400.0 mg/kg/injection, schedule: Q01DX005 (ip), vehicle: saline 99 % of control

Cc1nc(N)[nH]c(=O)c1CCCN=Cc1ccccc1
inactive: dose: 60.0 mg/kg/injection, schedule: Q01DX005 (ip), vehicle: Klucel (hydroxypropylcellulose) (HPC) 108 % of control | [5] 105 % of control | [6] 96 % of control

CCCCCCC(=O)CCCCCCCCCCCCC(=O)OC
inactive: dose: 12.5 mg/kg/injection, schedule: Q04DX003 (ip), vehicle: saline with Tween-80 100 % of control | dose: 25.0 mg/kg/injection, schedule: Q04DX003 (ip), vehicle: saline with Tween-80 100 % of control | dose: 50.0 mg/kg/injection, schedule: Q04DX003 (ip), vehicle: saline with Tween-80 100 % of control

[C-]#[N+]C([N+]#[C-])=C(C)OCC
inactive: dose: 6.25 mg/kg/injection, schedule: Q01DX009 (ip), vehicle: saline with Tween-80 98 % of control | dose: 12.5 mg/kg/injection, schedule: Q01DX009 (ip), vehicle: saline with Tween-80 89 % of control | [22] 105 % of control | [1] 101 % of control

CNc1nc(NC)nc(N(C)C=O)n1
inactive: [22] 95 % of control | [23] 90 % of control

CN(C)CCC(c1ccccc1)C(CO)c1ccccc1 (stereo unspecified)
inactive: dose: 100.0 mg/kg/injection, schedule: Q01DX001 (ip), vehicle: Klucel (hydroxypropylcellulose) (HPC) 116 % of control | dose: 200.0 mg/kg/injection, schedule: Q01DX001 (ip), vehicle: Klucel (hydroxypropylcellulose) (HPC) 102 % of control

C(=C\c1cc2ccc(C3=NCCN3)cc2[nH]1)/c1ccc(C2=NCCN2)cc1
inactive: [21] 118 % of control

Nc1ncnc2c1ncn2CC(O)CBr (stereo unspecified)
inactive: [9] 101 % of control | [10] 104 % of control | [11] 93 % of control

Cn1nnc2c1C(=O)c1ccccc1C2=O
inactive: [23] 106 % of control | [7] 111 % of control | [8] 110 % of control

Nc1ccc(NCCC2CCCN3CCCCC23)c2c(=O)c3ccccc3sc12 (stereo unspecified)
inactive: dose: 32.5 mg/kg/injection, schedule: Q01DX005 (ip), vehicle: saline with Tween-80 100 % of control | dose: 65.0 mg/kg/injection, schedule: Q01DX005 (ip), vehicle: saline with Tween-80 100 % of control | dose: 80.0 mg/kg/injection, schedule: Q01DX005 (ip), vehicle: saline with Tween-80 95 % of control | dose: 130.0 mg/kg/injection, schedule: Q01DX005 (ip), vehicle: saline with Tween-80 101 % of control | dose: 160.0 mg/kg/injection, schedule: Q01DX005 (ip), vehicle: saline with Tween-80 104 % of control | dose: 260.0 mg/kg/injection, schedule: Q01DX005 (ip), vehicle: saline with Tween-80 109 % of control
